Laboratory results reported in publication PMC6290777, “Inhalation of the prodrug PI3K inhibitor CL27c improves lung function in asthma and fibrosis” (Nature Communications, 2018).

Tested on: human lung fibroblasts (HLF)
Assay: Cell survival of human lung fibroblasts (CellTiter-Glo)
Format: cell-based
Details: TGF-β 10 ng/ml, 48 hours; CL27c 1 and 10 µM
Protocol: Human lung fibroblast cell culture
Two separate human lung fibroblast cell lines isolated from IPF patients were used: LL97a derived from a person (ATCC, Manassas, USA) and DHLF-IPF (#CC-7231, Lonza, Switzerland). Control cell lines were CCD-16Lu, obtained from a person that died of astrocytoma –a disease unrelated to IPF - (ATCC) and NHLF (#CC-2512; Lonza). LL97a and CCD-16Lu cells were cultured in Dulbecco's modified Eagles medium (DMEM, Sigma Aldrich, Dorset, UK). Media was supplemented with penicillin/streptomycin (100 U/ml, Thermo-Fischer, Germany) and 10% fetal bovine serum (FBS, Thermo-Fischer, Germany). Cells from Lonza were cultured in the FGMTM (#CC-3132, Lonza). […]
Caliper based assay, the reaction was terminated by addition of EDTA buffer. Substrate and product were separated and quantified electrophoretically using the microfluidic-based and the assay plate was read on Caliper LabChip 3000 Drug Discovery System from Caliper Life Sciences (Walthan, MA, USA). ADP Glo was another method of detection used for some kinase assays where data was obtained by quantifying the intensity of luminescence. For ADP Glo based assay, the reaction was terminated by applying the Promega ADP Glo Kinase Assay kit and the assay plate was read on a LJL Biosystems Analyst HT. […]

Structure (SMILES): COC(=O)c1cccc(Cn2cc(-c3cccc4c(=O)cc(N5CCOCC5)[nH]c34)nn2)c1 [CL27c]
- survival of HLF lines: reduced survival at 1 and 10 µM
